Reference: patent US20080009418A1, “Selective Inhibitors” (Alchemia LTD., priority 2004, published 2008)

Key:
Details in all cases: compound at 10 μM
[1] = target: T1, Human δ-opioid (DOP) (Homo sapiens, UniProt P41143); experiment: Radioligand binding, human δ-opioid (DOP) membranes, FlashPlate, [3H]-Bremazocine
T1 construct: purchased Perkin Elmer Biosignal
Outline: (§1)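 Cloned human receptor membranes were coated onto FlashPlate wells and incubated with radioligand and compound (added from a 0.5 mM DMSO daughter plate) for 1 hour at room temperature in the dark. Scintillation counting gave percent inhibition, with DMSO defining total and reference ligand defining non-specific binding.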

[2] = target: T2, Human κ-Opioid (KOP) (Homo sapiens, UniProt P41145); experiment: Radioligand binding, human κ-opioid (KOP) membranes, filtration, [3H]-Diprenorphine
T2 construct: purchased Perkin Elmer Biosignal
Outline: (§2)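 Membranes from cloned human receptors were incubated with compound and radioligand for 1 hour at room temperature. Bound ligand was collected on 0.3% PEI-soaked filters, washed with cold 50 mM Tris-HCl pH 7.4, and counted by scintillation. Percent inhibition was computed against DMSO totals and reference-ligand nonspecific wells.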

[3] = target: T3, Human Melanocortin (MC3) (Homo sapiens, UniProt P41968); experiment: Radioligand binding, human melanocortin MC3 membranes, FlashPlate, [125I]-NDP-αMSH
T3 construct: purchased Perkin Elmer Biosignal
Outline: as §1

[4] = target: T4, Human Melanocortin (MC4) (Homo sapiens, UniProt P32245); experiment: Radioligand binding, human melanocortin MC4 membranes, FlashPlate, [125I]-NDP-αMSH
T4 construct: purchased Perkin Elmer Biosignal
Outline: as §1

[5] = target: T5, Human melanocortin (MC5) (Homo sapiens, UniProt P33032); experiment: Radioligand binding, human melanocortin MC5 membranes, FlashPlate, [125I]-NDP-αMSH
T5 construct: purchased Perkin Elmer Biosignal
Outline: as §1

[6] = target: T6, Human melanin-concentrating hormone (MCH1) (Homo sapiens, UniProt Q99705); experiment: Radioligand binding, human melanin-concentrating hormone MCH1 membranes, FlashPlate, [125I]-S36057
T6 construct: purchased Perkin Elmer Biosignal
Outline: as §1

[7] = target: T7, Human μ-opioid (MOP) (Homo sapiens, UniProt P35372); experiment: Radioligand binding, human μ-opioid (MOP) membranes, FlashPlate, [3H]-Naloxone
T7 construct: purchased Perkin Elmer Biosignal
Outline: as §1

[8] = target: T8, Human neurokinin (NK1) (Homo sapiens, UniProt P25103); experiment: Radioligand binding, human neurokinin NK1 membranes, filtration, [125I]-Substance P
T8 construct: purchased Perkin Elmer Biosignal
Outline: as §2

[9] = target: T9, Human neuropeptide Y (NPY-Y1) (Homo sapiens, UniProt P25929); experiment: Radioligand binding, human neuropeptide Y NPY-Y1 membranes, FlashPlate, [125I]-PYY
T9 construct: purchased Perkin Elmer Biosignal
T9 sequence (P25929 1-384): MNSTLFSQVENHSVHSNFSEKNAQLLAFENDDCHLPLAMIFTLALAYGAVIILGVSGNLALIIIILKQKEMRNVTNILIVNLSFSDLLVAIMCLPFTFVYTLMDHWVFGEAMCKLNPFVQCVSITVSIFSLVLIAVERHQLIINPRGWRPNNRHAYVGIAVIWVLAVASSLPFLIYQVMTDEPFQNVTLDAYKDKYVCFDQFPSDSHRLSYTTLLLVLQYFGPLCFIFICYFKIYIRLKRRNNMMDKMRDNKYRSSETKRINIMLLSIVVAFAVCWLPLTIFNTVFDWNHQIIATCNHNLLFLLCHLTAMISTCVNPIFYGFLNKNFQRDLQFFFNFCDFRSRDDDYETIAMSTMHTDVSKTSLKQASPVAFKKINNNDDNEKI
Outline: as §1

[10] = target: T10, Human opioid (ORL1) (Homo sapiens, UniProt P41146); experiment: Radioligand binding, human opioid ORL1 membranes, FlashPlate, [125I]-Nociceptin
T10 construct: purchased Perkin Elmer Biosignal
Outline: as §1

[11] = target: T11, Mouse urotensin (mUR2) (Mus musculus, UniProt Q8VIH9); experiment: Radioligand binding, mouse urotensin mUR2 membranes, FlashPlate, [125I]-Urotensin II
T11 construct: purchased Perkin Elmer Biosignal
T11 sequence (Q8VIH9 1-385): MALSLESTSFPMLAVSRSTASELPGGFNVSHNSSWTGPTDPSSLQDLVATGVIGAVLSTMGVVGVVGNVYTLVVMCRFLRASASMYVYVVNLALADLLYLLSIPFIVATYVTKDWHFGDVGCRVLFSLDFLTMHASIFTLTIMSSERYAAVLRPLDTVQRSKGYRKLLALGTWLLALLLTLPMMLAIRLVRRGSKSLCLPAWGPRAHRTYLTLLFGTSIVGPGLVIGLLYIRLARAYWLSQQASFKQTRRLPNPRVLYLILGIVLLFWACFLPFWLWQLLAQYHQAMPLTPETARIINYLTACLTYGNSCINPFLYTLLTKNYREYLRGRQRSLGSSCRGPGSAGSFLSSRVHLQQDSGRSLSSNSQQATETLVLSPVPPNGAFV
Outline: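 Cloned mouse urotensin (mUR2) receptor membranes from Perkin Elmer Biosignal were immobilized in FlashPlate microplates using a proprietary coating. Each well got 19.5 μl buffer, then 0.5 μl of DMSO, reference ligand, or compound. Adding 5 μl of [125I]-Urotensin II, diluted to 5× final concentration in binding buffer, started binding. Plates were sealed with TopSeal-A and incubated 1 hour at room temperature in the dark. Wells were counted for 30 seconds each on a TopCount after a 60-second delay, and percentage inhibition was calculated.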

[12] = [125I]-Urotensin II, FlashPlate

T1 sequence (P41143 whole entry): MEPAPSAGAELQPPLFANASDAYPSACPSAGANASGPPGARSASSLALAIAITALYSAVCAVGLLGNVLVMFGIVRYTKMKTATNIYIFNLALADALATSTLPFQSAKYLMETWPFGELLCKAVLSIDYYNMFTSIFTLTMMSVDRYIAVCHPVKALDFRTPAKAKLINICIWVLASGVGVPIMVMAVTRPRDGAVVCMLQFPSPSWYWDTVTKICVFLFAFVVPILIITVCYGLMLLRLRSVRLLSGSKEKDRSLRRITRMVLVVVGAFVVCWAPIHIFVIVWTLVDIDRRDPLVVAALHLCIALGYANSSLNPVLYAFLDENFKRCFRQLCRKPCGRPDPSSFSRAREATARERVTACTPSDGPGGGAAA
T2 sequence (P41145 whole entry): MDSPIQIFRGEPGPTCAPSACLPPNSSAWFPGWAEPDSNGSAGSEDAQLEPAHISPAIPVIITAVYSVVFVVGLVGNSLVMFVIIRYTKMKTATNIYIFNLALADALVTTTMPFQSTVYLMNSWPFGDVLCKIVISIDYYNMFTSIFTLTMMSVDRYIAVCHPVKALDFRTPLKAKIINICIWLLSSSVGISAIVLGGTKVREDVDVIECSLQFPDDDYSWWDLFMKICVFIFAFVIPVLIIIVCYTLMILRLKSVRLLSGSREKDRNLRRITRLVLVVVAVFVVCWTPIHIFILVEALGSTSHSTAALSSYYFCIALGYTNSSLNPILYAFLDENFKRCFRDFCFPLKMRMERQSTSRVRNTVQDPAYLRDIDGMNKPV
T10 sequence (P41146 whole entry): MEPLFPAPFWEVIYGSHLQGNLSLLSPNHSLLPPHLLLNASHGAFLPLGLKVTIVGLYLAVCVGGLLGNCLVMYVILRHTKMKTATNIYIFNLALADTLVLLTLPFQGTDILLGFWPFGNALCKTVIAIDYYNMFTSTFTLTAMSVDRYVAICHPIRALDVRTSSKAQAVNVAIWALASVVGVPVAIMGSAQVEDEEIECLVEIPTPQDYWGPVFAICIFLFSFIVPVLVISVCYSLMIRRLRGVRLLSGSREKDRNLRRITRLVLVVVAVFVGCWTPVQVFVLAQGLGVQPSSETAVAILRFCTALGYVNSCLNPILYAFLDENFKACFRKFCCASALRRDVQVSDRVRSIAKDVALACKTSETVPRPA
T3 sequence (P41968 whole entry): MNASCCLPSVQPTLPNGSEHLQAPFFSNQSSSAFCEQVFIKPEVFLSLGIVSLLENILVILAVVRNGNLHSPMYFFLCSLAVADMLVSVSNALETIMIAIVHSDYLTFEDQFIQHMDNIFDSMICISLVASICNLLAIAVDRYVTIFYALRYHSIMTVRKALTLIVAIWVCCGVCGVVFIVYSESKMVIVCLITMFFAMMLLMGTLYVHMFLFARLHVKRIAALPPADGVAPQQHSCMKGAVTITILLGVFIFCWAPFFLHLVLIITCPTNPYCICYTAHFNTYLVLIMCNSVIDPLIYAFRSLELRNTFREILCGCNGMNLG
T6 sequence (Q99705 whole entry): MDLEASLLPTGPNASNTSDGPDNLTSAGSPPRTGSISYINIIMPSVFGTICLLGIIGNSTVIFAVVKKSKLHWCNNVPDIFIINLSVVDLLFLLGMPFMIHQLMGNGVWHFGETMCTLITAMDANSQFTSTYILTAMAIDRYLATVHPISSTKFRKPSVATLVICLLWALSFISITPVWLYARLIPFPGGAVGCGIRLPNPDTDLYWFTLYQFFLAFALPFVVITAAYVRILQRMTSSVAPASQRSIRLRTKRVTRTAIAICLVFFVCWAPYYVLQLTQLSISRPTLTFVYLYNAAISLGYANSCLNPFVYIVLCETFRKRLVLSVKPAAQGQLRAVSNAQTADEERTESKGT
T5 sequence (P33032 whole entry): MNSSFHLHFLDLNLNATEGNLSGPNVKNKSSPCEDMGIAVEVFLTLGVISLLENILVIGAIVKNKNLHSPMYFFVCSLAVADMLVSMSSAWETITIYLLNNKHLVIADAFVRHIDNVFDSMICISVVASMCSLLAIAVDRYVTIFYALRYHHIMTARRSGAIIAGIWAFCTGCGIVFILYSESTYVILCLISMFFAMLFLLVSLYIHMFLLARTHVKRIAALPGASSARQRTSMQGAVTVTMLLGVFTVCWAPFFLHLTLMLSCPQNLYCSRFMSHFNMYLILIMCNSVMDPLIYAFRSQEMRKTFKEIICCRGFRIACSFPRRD
T7 sequence (P35372 whole entry): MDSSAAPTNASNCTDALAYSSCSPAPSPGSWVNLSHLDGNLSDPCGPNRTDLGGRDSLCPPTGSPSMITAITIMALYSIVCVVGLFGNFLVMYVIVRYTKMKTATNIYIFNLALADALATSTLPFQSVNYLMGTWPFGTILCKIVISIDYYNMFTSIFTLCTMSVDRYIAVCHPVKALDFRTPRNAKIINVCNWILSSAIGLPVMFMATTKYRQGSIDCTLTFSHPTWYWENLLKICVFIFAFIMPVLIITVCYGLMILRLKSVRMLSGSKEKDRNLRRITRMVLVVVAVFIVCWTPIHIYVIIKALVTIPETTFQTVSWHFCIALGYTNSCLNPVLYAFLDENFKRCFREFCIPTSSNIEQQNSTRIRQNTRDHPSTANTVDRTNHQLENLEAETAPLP
T4 sequence (P32245 whole entry): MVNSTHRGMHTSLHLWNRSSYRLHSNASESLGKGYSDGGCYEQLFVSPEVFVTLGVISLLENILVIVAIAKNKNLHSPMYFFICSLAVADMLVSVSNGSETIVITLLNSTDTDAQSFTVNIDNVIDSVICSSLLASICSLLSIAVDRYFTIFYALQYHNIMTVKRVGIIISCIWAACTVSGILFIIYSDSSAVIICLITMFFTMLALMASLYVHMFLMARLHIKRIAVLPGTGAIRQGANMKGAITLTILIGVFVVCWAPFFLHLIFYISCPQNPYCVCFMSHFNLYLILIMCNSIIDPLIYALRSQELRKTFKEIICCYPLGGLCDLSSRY
T8 sequence (P25103 whole entry): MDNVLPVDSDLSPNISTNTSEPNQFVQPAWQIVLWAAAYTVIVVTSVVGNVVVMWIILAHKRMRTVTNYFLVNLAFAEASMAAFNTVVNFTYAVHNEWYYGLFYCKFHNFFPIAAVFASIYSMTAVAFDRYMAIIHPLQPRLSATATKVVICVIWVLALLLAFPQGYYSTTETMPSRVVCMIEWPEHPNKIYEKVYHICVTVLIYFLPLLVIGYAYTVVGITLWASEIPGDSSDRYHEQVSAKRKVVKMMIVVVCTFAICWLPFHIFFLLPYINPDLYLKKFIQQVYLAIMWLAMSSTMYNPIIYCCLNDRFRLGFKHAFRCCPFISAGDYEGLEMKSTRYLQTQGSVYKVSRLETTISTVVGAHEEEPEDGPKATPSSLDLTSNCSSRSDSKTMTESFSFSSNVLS

Structure (SMILES): CO[C@H]1[C@H](O)[C@@H](COCc2ccc(Cl)cc2)OC(OCc2ccc(Cl)cc2)[C@@H]1NC(=O)CNC(=N)N (stereo partly shown) [compound 105]
- A1 radioligand binding, percentage inhibition ([1]; [3H]-Bremazocine): − (“−” indicates less than 50% inhibition at 10 μM)
- A2 radioligand binding, percentage inhibition ([2]; [3H]-Diprenorphine): − (“−” indicates less than 50% inhibition at 10 μM)
- A3 radioligand binding, percentage inhibition ([3]; [125I]-NDP-αMSH): − (“−” indicates less than 50% inhibition at 10 μM)
- A4 radioligand binding, percentage inhibition ([4]; [125I]-NDP-αMSH): + (“+” indicates greater than 50% inhibition at 10 μM)
- A5 radioligand binding, percentage inhibition ([5]; [125I]-NDP-αMSH): + (“+” indicates greater than 50% inhibition at 10 μM)
- A6 radioligand binding, percentage inhibition ([6]; [125I]-S36057): − (“−” indicates less than 50% inhibition at 10 μM)
- A7 radioligand binding, percentage inhibition ([7]; [3H]-Naloxone): − (“−” indicates less than 50% inhibition at 10 μM)
- A8 radioligand binding, percentage inhibition ([8]; [125I]-Substance P): + (“+” indicates greater than 50% inhibition at 10 μM)
- A9 radioligand binding, percentage inhibition ([9]; [125I]-PYY): − (“−” indicates less than 50% inhibition at 10 μM)
- A10 radioligand binding, percentage inhibition ([10]; [125I]-Nociceptin): − (“−” indicates less than 50% inhibition at 10 μM)
- A11 radioligand binding, percentage inhibition ([11]; [125I]-Urotensin II): − (“−” indicates less than 50% inhibition at 10 μM)

Structure (SMILES): COCC1OC(OCc2ccc(Cl)cc2)C(NC(=O)CCCN)C(OCc2ccccc2)C1O (stereo not shown) [compound 197]
- A1: inhibition of radioligand binding ([1]; [3H]-Bremazocine, FlashPlate): − (“−” indicates less than 50% inhibition at 10 μM)
- A2: inhibition of radioligand binding ([2]; [3H]-Diprenorphine, filtration): − (“−” indicates less than 50% inhibition at 10 μM)
- A3: inhibition of radioligand binding ([3]; [125I]-NDP-αMSH, FlashPlate): − (“−” indicates less than 50% inhibition at 10 μM)
- A4: inhibition of radioligand binding ([4]; [125I]-NDP-αMSH, FlashPlate): − (“−” indicates less than 50% inhibition at 10 μM)
- A5: inhibition of radioligand binding ([5]; [125I]-NDP-αMSH, FlashPlate): − (“−” indicates less than 50% inhibition at 10 μM)
- A6: inhibition of radioligand binding ([6]; [125I]-S36057, FlashPlate): − (“−” indicates less than 50% inhibition at 10 μM)
- A7: inhibition of radioligand binding ([7]; [3H]-Naloxone, FlashPlate): − (“−” indicates less than 50% inhibition at 10 μM)
- A8: inhibition of radioligand binding ([8]; [125I]-Substance P, filtration): + (“+” indicates greater than 50% inhibition at 10 μM)
- A9: inhibition of radioligand binding ([9]; [125I]-PYY, FlashPlate): − (“−” indicates less than 50% inhibition at 10 μM)
- A10: inhibition of radioligand binding ([10]; [125I]-Nociceptin, FlashPlate): − (“−” indicates less than 50% inhibition at 10 μM)
- A11: inhibition of radioligand binding [11, 12]: − (“−” indicates less than 50% inhibition at 10 μM)

Structure (SMILES): NCCC(=O)N[C@H]1C(OCc2ccc3ccccc3c2)O[C@H](COCc2ccc(Cl)cc2)[C@@H](O)[C@@H]1OCc1ccc2ccccc2c1 (stereo partly shown) [compound 447]
- A1: inhibition of radioligand binding ([1]; [3H]-Bremazocine, human DOP membranes): − (“−” indicates less than 50% inhibition at 10 μM)
- A2: inhibition of radioligand binding ([2]; [3H]-Diprenorphine, human KOP membranes): − (“−” indicates less than 50% inhibition at 10 μM)
- A3: inhibition of radioligand binding ([3]; [125I]-NDP-αMSH, human MC3 membranes, 10 µM): + (“+” indicates greater than 50% inhibition at 10 μM)
- A4: inhibition of radioligand binding ([4]; [125I]-NDP-αMSH, human MC4 membranes, 10 µM): + (“+” indicates greater than 50% inhibition at 10 μM)
- A5: inhibition of radioligand binding ([5]; [125I]-NDP-αMSH, human MC5 membranes): + (“+” indicates greater than 50% inhibition at 10 μM)
- A6: inhibition of radioligand binding ([6]; [125I]-S36057, human MCH1 membranes, 10 µM): + (“+” indicates greater than 50% inhibition at 10 μM)
- A7: inhibition of radioligand binding ([7]; [3H]-Naloxone, human MOP membranes): − (“−” indicates less than 50% inhibition at 10 μM)
- A8: inhibition of radioligand binding ([8]; [125I]-Substance P, human NK1 membranes): + (“+” indicates greater than 50% inhibition at 10 μM)
- A9: inhibition of radioligand binding ([9]; [125I]-PYY, human NPY-Y1 membranes): − (“−” indicates less than 50% inhibition at 10 μM)
- A10: inhibition of radioligand binding ([10]; [125I]-Nociceptin, human ORL1 membranes): − (“−” indicates less than 50% inhibition at 10 μM)
- A11: inhibition of radioligand binding ([11]; [125I]-Urotensin II, mouse mUR2 membranes): − (“−” indicates less than 50% inhibition at 10 μM)

Structure (SMILES): CSC1OC(COCc2ccc3ccccc3c2)C(O)C(OCc2ccccc2)C1NC(=O)CCCNC(=N)N (stereo not shown) [compound 264]
- A1: inhibition of radioligand binding ([1]; [3H]-Bremazocine, FlashPlate): − (“−” indicates less than 50% inhibition at 10 μM)
- A2: inhibition of radioligand binding ([2]; [3H]-Diprenorphine, filtration): − (“−” indicates less than 50% inhibition at 10 μM)
- A3: inhibition of radioligand binding ([3]; [125I]-NDP-αMSH, FlashPlate): − (“−” indicates less than 50% inhibition at 10 μM)
- A4: inhibition of radioligand binding ([4]; [125I]-NDP-αMSH, FlashPlate): − (“−” indicates less than 50% inhibition at 10 μM)
- A5: inhibition of radioligand binding ([5]; [125I]-NDP-αMSH, FlashPlate): − (“−” indicates less than 50% inhibition at 10 μM)
- A6: inhibition of radioligand binding ([6]; [125I]-S36057, FlashPlate): − (“−” indicates less than 50% inhibition at 10 μM)
- A7: inhibition of radioligand binding ([7]; [3H]-Naloxone, FlashPlate): − (“−” indicates less than 50% inhibition at 10 μM)
- A8: inhibition of radioligand binding ([8]; [125I]-Substance P, filtration): + (“+” indicates greater than 50% inhibition at 10 μM)
- A9: inhibition of radioligand binding ([9]; [125I]-PYY, FlashPlate): − (“−” indicates less than 50% inhibition at 10 μM)
- A10: inhibition of radioligand binding ([10]; [125I]-Nociceptin, FlashPlate): − (“−” indicates less than 50% inhibition at 10 μM)
- A11: inhibition of radioligand binding [11, 12]: − (“−” indicates less than 50% inhibition at 10 μM)

Structure (SMILES): COC[C@H]1OC(OCc2ccc3ccccc3c2)[C@H](NC(=O)CNC(=N)N)[C@@H](OCc2ccc(-c3ccccc3)cc2)[C@@H]1O (stereo partly shown) [compound 14]
- A1 radioligand binding inhibition ([1]; human δ-opioid (DOP) membranes): − (“−” indicates less than 50% inhibition at 10 μM)
- A2 radioligand binding inhibition ([2]; human κ-opioid (KOP) membranes): − (“−” indicates less than 50% inhibition at 10 μM)
- A3 radioligand binding inhibition ([3]; human melanocortin MC3 membranes): − (“−” indicates less than 50% inhibition at 10 μM)
- A4 radioligand binding inhibition ([4]; human melanocortin MC4 membranes): + (“+” indicates greater than 50% inhibition at 10 μM)
- A5 radioligand binding inhibition ([5]; human melanocortin MC5 membranes): + (“+” indicates greater than 50% inhibition at 10 μM)
- A6 radioligand binding inhibition ([6]; human MCH1 membranes): + (“+” indicates greater than 50% inhibition at 10 μM)
- A7 radioligand binding inhibition ([7]; human μ-opioid (MOP) membranes): + (“+” indicates greater than 50% inhibition at 10 μM)
- A8 radioligand binding inhibition ([8]; human neurokinin NK1 membranes): − (“−” indicates less than 50% inhibition at 10 μM)
- A9 radioligand binding inhibition ([9]; human NPY-Y1 membranes): − (“−” indicates less than 50% inhibition at 10 μM)
- A10 radioligand binding inhibition ([10]; human ORL1 membranes): − (“−” indicates less than 50% inhibition at 10 μM)
- A11 radioligand binding inhibition ([11]; mouse urotensin mUR2 membranes): − (“−” indicates less than 50% inhibition at 10 μM)
